Source: patent publication US20240391923A1, “METHIONINE ADENOSYLTRANSFERASE 2A INHIBITOR FOR TREATING MTAP DELETION-TYPE CANCER” (SUZHOU GENHOUSE BIO CO., LTD., priority 2022, published 2024)
pIC50: −log10 of the molar value. Like-named read-outs stand apart in the source and are kept apart here.

Tests used:
[1] = tested on: HCT116-MTAP wild-type (+/+)-cell strain; test: Tumor cell proliferation inhibition assay (CellTiter-Glo), HCT116-MTAP wild-type (+/+); type: cell-based; conditions: Homo sapiens, 120 h, HCT116-MTAP wild-type (+/+) cells, 5-day treatment; for IC50: IC50 score, read-out: Tumor cell 5-day relative growth inhibition (HCT116-MTAP+/+) (nM), score; for pIC50: IC50 value, read-out: Tumor cell 5-day relative growth inhibition (HCT116-MTAP+/+)
Summary of the method: (§1)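 Growth inhibition is evaluated from cellular ATP measured with CellTiter-Glo once cells have been treated for 5 days. Compounds are added 24 h after seeding as ten threefold dilutions starting at 10 μM, with a separate DMSO treatment group.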

[2] = tested on: SDMA in HCT116-MTAP-knockout cell line; test: Cell symmetric dimethylarginine (SDMA) test, In-cell Western, HCT116-MTAP-knockout; type: cell-based; conditions: Homo sapiens, 96 h
[3] = tested on: HCT116-MTAP-knockout (−/−) cell strain; test: Tumor cell proliferation inhibition assay (CellTiter-Glo), HCT116-MTAP-knockout (-/-); type: cell-based; conditions: Homo sapiens, 120 h, HCT116-MTAP-knockout (−/−) cells, 5-day treatment; for IC50: IC50 score, read-out: Tumor cell 5-day relative growth inhibition (HCT116-MTAP−/−) (nM), score; for pIC50: IC50 value, read-out: Tumor cell 5-day relative growth inhibition (HCT116-MTAP−/−)
Summary of the method: as §1

Hut-78 cell strain = test: Tumor cell proliferation inhibition assay (CellTiter-Glo), Hut-78; type: cell-based; conditions: Hut-78 cells, 5-day treatment; for IC50: IC50 score, read-out: Tumor cell 5-day relative growth inhibition (Hut-78) (nM), score; for pIC50: IC50 value, read-out: Tumor cell 5-day relative growth inhibition (Hut-78)
Description: After the HCT116-MTAP-knockout (−/−) cell strain, the HCT116-MTAP wild-type(+/+)-cell strain, the DOHH-2 cell strain, or the Hut-78 cell strain was treated with the test compound for 5 days, the ATP level was measured using a CellTiter-Glo kit of Promega to evaluate the inhibition of the test compound against the growth of the tumor cell strain.
In the present application, the HCT116-MTAP-knockout (−/−) cell strain, the HCT116-MTAP wild-type (+/+)-cell strain, the DOHH-2 cell strain, or the Hut-78 cell strain was seeded into a 96-well cell culture plate at an appropriate cell density. After 24 h, the cells were treated using the test compounds diluted 1:3 fold at the highest concentration of 10 μM for 10 gradients, and a DMSO treatment group was set up separately. The cells were cultured in a 37° C./5% CO2 incubator for 5 days.

[4] = target: MAT2A recombinant protein (Homo sapiens, UniProt P31153); test: MAT2A inhibitory activity (malachite green colorimetric enzyme assay); type: biochemical
Chain of MAT2A recombinant protein (P31153 whole entry): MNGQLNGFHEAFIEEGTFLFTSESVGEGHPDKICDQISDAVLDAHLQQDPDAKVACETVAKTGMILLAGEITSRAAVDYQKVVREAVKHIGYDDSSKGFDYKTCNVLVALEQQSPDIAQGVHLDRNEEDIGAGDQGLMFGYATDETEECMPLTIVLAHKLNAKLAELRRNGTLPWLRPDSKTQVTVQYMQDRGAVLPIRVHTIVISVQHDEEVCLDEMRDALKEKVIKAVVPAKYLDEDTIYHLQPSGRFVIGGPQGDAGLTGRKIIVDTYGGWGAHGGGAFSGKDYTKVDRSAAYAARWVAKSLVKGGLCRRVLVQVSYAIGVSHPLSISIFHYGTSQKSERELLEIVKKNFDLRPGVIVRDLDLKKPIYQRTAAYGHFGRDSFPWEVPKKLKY
Summary of the method: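 Recombinant human MAT2A with L-methionine and ATP in 50 mM HEPES pH 7.5, 50 mM KCl, 10 mM MgCl2, 10 mM DTT, 60 min at room temperature. Phosphate released detected by malachite green reagent (15 min) at 630 nm. Ten-point 1:3 series from 1000 nM final; IC50 by variable-slope non-linear regression.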

[5] = tested on: SDMA in human colon cancer cell line HCT116; test: Cell symmetric dimethylarginine (SDMA) test, In-cell Western, HCT116 (MTAP wild-type); type: cell-based; conditions: Homo sapiens, HCT-116, 96 h
Summary of the method: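 HCT116 cells treated 4 days at 37° C with compound, top concentration 6 μM, 1:4 dilutions, 6 points, versus DMSO. Fixed cells stained for SDMA with DRAQ5 normalisation; 800/700 nm ratio after background subtraction fitted by non-linear regression for IC50.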

[6] = IC50 score class, read-out: Cell 96 h SDMA Inhibition (HCT116-MTAP−/−) (score)
[7] = read-out: Cell 96 h SDMA Inhibition (HCT116-MTAP−/−)
[8] = IC50 score class, read-out: MAT2A Inhibition (score)
[9] = IC50 score class, read-out: Cell 96 h SDMA Inhibition (HCT116-MTAP+/+) (score)
[10] = read-out: Cell 96 h SDMA inhibition (HCT116-MTAP+/+)

| SMILES | IC50 [1] [nM] | pIC50 [1] | pIC50 [2, 6] | pIC50 [2, 7] | IC50 [3] [nM] | pIC50 [3] | IC50 (Hut-78 cell strain; Homo sapiens, HuT78, 120 h) [nM] | pIC50 (Hut-78 cell strain; Homo sapiens, HuT78, 120 h) | pIC50 [4, 8] | pIC50 ([4]; read-out: MAT2A Inhibition) | pIC50 [5, 9] | pIC50 [5, 10] | pIC50 (Hut-78 cell strain) |
| --- | --- | --- | --- | --- | --- | --- | --- | --- | --- | --- | --- | --- | --- |
| O=c1c2nn(CC3CC3)cc2c2ccc(C(F)(F)F)nc2n1-c1cccnc1 [Compound B199] | ≥ 2000 | 4.27 | > 6.70 | 6.73 | < 500 | 6.74 | < 500 | 6.49 | > 7.00 | 7.27 | 6.00 to 6.70 | 6.05 |  |
| Cc1ncccc1-n1c(=O)c2nn(C)c(C)c2c2ccc(C(F)(F)F)nc21 [Compound B189] | < 500 | 6.31 | > 6.70 | 7.91 | < 500 | 7.87 | < 500 | 7.31 | > 7.00 | 7.40 | 6.00 to 6.70 | 6.25 |  |
| CNC(=O)CC1N=c2c(c3ccc(Cl)cc3n(-c3cccnc3)c2=O)=N1 (centres unmarked) [Compound B37] | ≥ 2000 | < 5.70 | 6.00 to 6.70 | 6.05 |  |  | ≥ 2000 | 5.19 | > 7.00 | 7.29 | 5.52 to 6.00 | 5.90 |  |
| Cn1cc2c(n1)c(=O)n(-c1ccc(F)c(O)c1)c1nc(C(F)(F)F)ccc21 [Compound B228] | ≥ 2000 | < 5.70 | 5.52 to 6.00 | 5.54 |  |  | ≥ 2000 | 5.46 | > 7.00 | 7.43 | < 5.52 | 5.49 |  |
| CCn1nc2c(=O)n(-c3cccnc3)c3cc(Cl)ccc3c2c1F [Compound B33] | ≥ 2000 | < 5.70 | 5.52 to 6.00 | 5.58 |  |  | 500 to 2000 | 5.96 | > 7.00 | 7.59 | < 5.52 | 5.31 |  |
| Cc1ncccc1-n1c(=O)c2nn(CC3CC3)cc2c2ccc(C(F)(F)F)nc21 [Compound B191] | 500 to 2000 | 6.03 | > 6.70 | 7.53 | < 500 | 7.45 | < 500 | 7.02 | > 7.00 | 7.39 | 5.52 to 6.00 | 5.89 |  |
| Cc1ncccc1-n1c(=O)c2nn(C3CC3)cc2c2ccc(C(F)(F)F)nc21 [Compound B211] | 500 to 2000 | 5.94 | > 6.70 | 7.41 |  |  | < 500 | 7.32 | > 7.00 | 7.45 | 5.52 to 6.00 | 5.99 |  |
| Cc1ncccc1-n1c(=O)c2[nH]ncc2c2ccc(C3CC3)nc21 [Compound B95] | 500 to 2000 | 6.21 | > 6.70 | 8.40 |  |  | < 500 | 7.73 | > 7.00 | 7.32 | < 5.52 | < 5.52 |  |
| Cc1ncccc1-n1c(=O)c2[nH]ncc2c2ccc(OC(F)(F)F)cc21 [Compound B101] | ≥ 2000 | < 5.70 | > 6.70 | 7.31 |  |  | < 500 | 7.30 | > 7.00 | 7.22 | < 5.52 | < 5.52 |  |
| O=c1c2nn(C(F)F)cc2c2ccc(Cl)cc2n1-c1cccnc1 [Compound B55] | ≥ 2000 | 5.45 | > 6.70 | 6.93 | < 500 | 6.98 | < 500 | 7.08 | > 7.00 | 7.74 | 5.52 to 6.00 | 5.82 |  |
| Cc1ncccc1-n1c(=O)c2nn(C)cc2c2ccc(Cl)cc21 [Compound B233] | < 500 | 6.87 | > 6.70 | 8.20 | < 500 | 7.81 | < 500 |  | > 7.00 | 7.87 | 6.00 to 6.70 | 6.60 | 8.09 |
| O=c1c2nn(C3CC3)cc2c2ccc(C(F)(F)F)nc2n1-c1cccnc1 [Compound B215] | ≥ 2000 | 5.38 | 6.00 to 6.70 | 6.68 | < 500 | 6.98 | < 500 | 6.51 | > 7.00 | 7.66 | 5.52 to 6.00 | 5.93 |  |
| NC(=O)CC1N=c2c(c3ccc(Cl)cc3n(-c3cccnc3)c2=O)=N1 (centres unmarked) [Compound B36] | ≥ 2000 | < 5.70 | 5.52 to 6.00 | 5.56 |  |  | ≥ 2000 | < 5.70 | > 7.00 | 7.26 | > 6.70 | 7.61 |  |
| COc1ccc(-n2cc3c(n2)c(=O)n(-c2ccccc2)c2nc(C(F)(F)F)ccc32)cc1 [Compound B218] | ≥ 2000 | 5.40 | > 6.70 | 7.40 |  |  | < 500 | 6.88 | > 7.00 | 7.11 | < 5.52 | < 5.52 |  |
